# Reference: ChEMBL document CHEMBL3045153, “Screening of flavonoids for antitubercular activity and their structureactivity relationships” (2013)
# Active and inactive are the calls of the source. The calls are words filed in the database; no cut-off is given here.
# System: Mycobacterium tuberculosis
# Assay: Antitubercular activity against Mycobacterium tuberculosis H37Rv ATCC 27294 measured every 24 hr by BACTEC 460 radiometric assay
# Type: functional
# Conditions: H37Rv ATCC 27294, 24 h
row,SMILES,MIC [µg/mL]
1,COc1c(O)cc2oc(-c3ccc(O)cc3)cc(=O)c2c1O [HISPIDULIN],100
2,O=c1cc(-c2ccccc2)oc2cc(O)c(O)c(O)c12 [BAICALEIN],50
3,O=c1c(O)c(-c2ccc(O)c(O)c2)oc2cc(O)cc(O)c12 [QUERCETIN],50
4,O=c1c(O)c(-c2cc(O)c(O)c(O)c2)oc2cc(O)cc(O)c12 [MYRICETIN],50
5,CO[C@H]1/C=C/O[C@@]2(C)Oc3c(C)c(O)c4c(O)c(c(/C=N/N5CCN(C)CC5)c(O)c4c3C2=O)NC(=O)/C(C)=C\C=C\[C@H](C)[C@H](O)[C@@H](C)[C@@H](O)[C@@H](C)[C@H](OC(C)=O)[C@@H]1C [RIFAMPIN],2
6,CN[C@@H]1[C@H](O[C@H]2[C@H](O[C@H]3[C@H](O)[C@@H](O)[C@H](N=C(N)N)[C@@H](O)[C@@H]3N=C(N)N)O[C@@H](C)[C@]2(O)C=O)O[C@@H](CO)[C@H](O)[C@H]1O [STREPTOMYCIN],2
7,O=c1cc(-c2ccc(O)c(O)c2)oc2cc(O)cc(O)c12 [LUTEOLIN],25

# System: Mycobacterium tuberculosis
# Assay: Antitubercular activity against Mycobacterium tuberculosis H37Rv ATCC 27294 at 100 ug/ml measured every 24 hr by BACTEC 460 radiometric assay
# Type: functional, organism-based
# Conditions: not given
row,SMILES,Activity
1,O=c1cc(-c2ccccc2)oc2cc(O)cc(O)c12,inactive
2,COc1ccc(-c2oc3cc(OC)c(OC)c(O)c3c(=O)c2OC)cc1O,inactive
3,O=c1c(O)c(-c2ccccc2)oc2cc(O)cc(O)c12,inactive
4,O=c1c(O)c(-c2ccc(O)cc2)oc2cc(O)cc(O)c12,inactive
5,C[C@@H]1O[C@@H](OC[C@H]2O[C@@H](Oc3c(-c4ccc(O)c(O)c4)oc4cc(O)cc(O)c4c3=O)[C@H](O)[C@@H](O)[C@@H]2O)[C@H](O)[C@H](O)[C@H]1O,inactive
6,O=c1cc(-c2ccc(O)cc2)oc2cc(O)cc(O)c12,inactive
7,COc1ccc([C@@H]2CC(=O)c3c(O)cc(O[C@@H]4O[C@H](CO[C@@H]5O[C@@H](C)[C@H](O)[C@@H](O)[C@H]5O)[C@@H](O)[C@H](O)[C@H]4O)cc3O2)cc1O,inactive
8,C[C@H]1O[C@H](Oc2c(-c3ccc(O)cc3)oc3cc(O)cc(O)c3c2=O)[C@@H](O)[C@@H](O)[C@@H]1O,inactive
9,O=c1cc(-c2ccc(O)cc2)oc2cc(OC3O[C@H](CO)[C@@H](O)[C@H](O)[C@H]3O)cc(O)c12 (some centres not stated),inactive
10,COc1c(O)cc2oc(-c3ccccc3)cc(=O)c2c1O,inactive
